Assay results taken from US20140227318A1, “SLEEP QUALITY IMPROVING AGENT” (LION CORPORATION, priority 2011, published 2014).

What was measured:
[1] = test system: male C57BL/6 mice; experiment: Measurement of amount of activity of mice (sleep inducing effect); assay type: in vivo, mouse; conditions: oral; for CUMULATIVE AMOUNT OF ACTIVITY 6 HOURS AFTER ADMINISTRATION: n=8; for sleep inducing effect: conclusion from amount of activity
Experimental: To check the sleep inducing effect of the S-adenosylmethionine-containing yeast, the following test was performed using respective samples shown in TABLE 1.
The S-adenosylmethionine-containing yeast (the sample in Example 1) used was “AMee (trade name)” manufactured by IWATA CHEMICAL CO., LTD. “Nissin Super Camellia dry yeast (trade name)” manufactured by Nisshin Foods Inc. was used as a yeast containing no adenosylmethionine (the sample in Comparative Example 2). S-adenosylmethionine disulfate tosylate (the sample in Comparative Example 3) used was S-adenosylmethionine disulfate tosylate manufactured by CHEMaster. The sample in Comparative Example 2 and the sample in Comparative Example 3 were mixed and used as a mixture of the yeast containing no S-adenosylmethionine and S-adenosylmethionine disulfate tosylate (the sample in Comparative Example 4). S-adenosylmethionine chloride used in Comparative Example 5 (the sample in Comparative Example 5) was a reagent from
SIGMA. In each of Example 1 and Comparative Examples 2, 3, 4, and 5, a suspension of the sample in a 0.5% by mass aqueous methyl cellulose solution was prepared and used as a sample solution for an experiment. A 0.5% by mass aqueous methyl cellulose solution (the sample in Comparative Example 1) was used as a control solution.
When a sample has the function of inducing sleep, the amount of activity always decreases after administration of the sample. Therefore, the sleep inducing effect of each sample was evaluated by determining whether or not the administration of the sample solution to a mouse caused a reduction in the amount of activity.
8-Week old or 9-week old male C57BL/6 mice were purchased from Japan SLC, Inc. and acclimatized for 3 to 6 days. The amount of activity during acclimatization was used to divide the mice into administration groups. Immediately before the onset of the dark period, a sample solution or the control solution was orally administered in an amount of 10 mL/kg per body weight, and the amount of activity was measured for 24 hours after administration. Each administration group included 8 mice (n=8).
The amount of activity was measured under the following conditions. The mice were raised in individual cages, and an infrared camera was disposed above each cage. The imaging range of the infrared camera was divided into 64 sections, and the number of occurrences that the mouse crossed a section was measured. The number of occurrences was collected every 30 minutes.
In FIG. 2, “**” represents that a significant difference was found at p<0.01.

[2] = intravenous injection or intramuscular injection; cited from earlier work

Row | Compound | CUMULATIVE AMOUNT OF ACTIVITY 6 HOURS AFTER ADMINISTRATION ([1]; 150 mg/kg (137 mg/kg in terms of S-adenosylmethionine)) | sleep inducing effect [1] | CUMULATIVE AMOUNT OF ACTIVITY 6 HOURS AFTER ADMINISTRATION ([1]; 293 mg/kg (150 mg/kg in terms of S-adenosylmethionine)) | influence on sleep onset latency [2] | length of NREM sleep (stage 4) [2]
1 | C[S+](CC[C@H](N)C(=O)O)C[C@H]1O[C@@H](n2cnc3c(N)ncnc32)[C@H](O)[C@@H]1O.[Cl-] (stereo partly drawn) [Comparative Example 5, S-adenosylmethionine chloride] | 7068 NUMBER OF OCCURRENCES/6 HOURS | no sleep inducing effect | – | – | –
2 | S-adenosylmethionine disulfate tosylate [Comparative Example 3] | – | no sleep inducing effect | 8618 NUMBER OF OCCURRENCES/6 HOURS | no influence | extended
